Results from ChEMBL document CHEMBL1152723, “Remarkable enhancement in the DNA-binding ability of C2-fluoro substituted pyrrolo[2,1-c][1,4]benzodiazepines and their anticancer potential” (2009).

Key:
DNA = assay: Binding affinity to calf thymus DNA assessed as change in melting temperature at a compound to DNA molar ratio of 1:5 at pH 7 by thermal denaturation assay; type: nucleic-acid assay; settings: Bos taurus
[1] = biological target: T1, Type II restriction enzyme BamHI (Bacillus amyloliquefaciens) (UniProt P23940); assay: Inhibition of Bacillus amyloliquefaciens BamH1-mediated pBR322 cleavage after 16 hrs by RED100-restriction endonuclease digestion assay
T1 sequence (whole entry): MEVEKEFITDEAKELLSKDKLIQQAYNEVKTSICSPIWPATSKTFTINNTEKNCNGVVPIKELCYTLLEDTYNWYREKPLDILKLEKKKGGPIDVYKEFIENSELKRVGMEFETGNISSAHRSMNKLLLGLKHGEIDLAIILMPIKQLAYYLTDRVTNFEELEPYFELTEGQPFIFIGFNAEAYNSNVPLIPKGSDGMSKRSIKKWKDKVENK

| Compound | ΔTm (DNA) | Activity [1] |
| --- | --- | --- |
| COc1cc2c(cc1OCCCCCN1CCN(CCCCCOc3cc4c(cc3OC)C(=O)N3CC(F)(F)C[C@H]3C=N4)CC1)N=C[C@@H]1CC(F)(F)CN1C2=O | 13 °C |  |
| C=C1C[C@H]2C=Nc3cc(OCCCOc4cc5c(cc4OC)C(=O)N4CC(=C)C[C@H]4C=N5)c(OC)cc3C(=O)N2C1 | 25.7 °C |  |
| COc1cc2c(cc1OCCCCOc1cc3c(cc1OC)C(=O)N1CC(F)(F)C[C@H]1C=N3)N=C[C@@H]1CC(F)(F)CN1C2=O | 4.2 °C |  |

More lines, now with the values ahead:

| ΔTm (DNA) | Activity [1] | Compound |
| --- | --- | --- |
| 28.9 °C | Dose-dependent effect | COc1cc2c(cc1OCCCN1CCN(CCCOc3cc4c(cc3OC)C(=O)N3CC(=C(F)F)C[C@H]3C=N4)CC1)N=C[C@@H]1CC(=C(F)F)CN1C2=O |
| 14 °C |  | COc1cc2c(cc1OCCCCN1CCN(CCCCOc3cc4c(cc3OC)C(=O)N3CC(F)(F)C[C@H]3C=N4)CC1)N=C[C@@H]1CC(F)(F)CN1C2=O |
